Experimental findings from patent publication US20160289280A1, “Fusion protein of recombinant ganoderma immunoregulatory protein and human serum albumin, preparation method thereof, and application thereof” (priority 2013, published 2016) are described below.

The test system of experiment [1] is mouse transplanted tumor S180. Kind of experiment: subcutaneous inhibition of mouse transplanted tumor S180. The format is in vivo. As to conditions: positive control 20 mg·kg^−1, abdominally injected. How it is done:
In vivo experiment: experimental material: mice weighing 18-22 g from Laboratory Animal Center of Jilin University; Ehrlich ascites tumor cell strains are provided by a lab of the inventor; cytoxan (CTX) is from Jiangsu Hengrui Medicine Co., Ltd, whose batch number is 06101921; 5180 ascites tumor and soild tumor experimental groups respectively comprises a normal control group, a negative control group, a positive control group, an rLZ-8 low-dosage group (0.25 mg·kg^−1), an rLZ-8 middle-dosage group (0.5 mg·kg^−1), an rLZ-8 high-dosage group (1 mg·kg^−1), an rLZ-8-HSA low-dosage group (0.25 mg·kg^−1), an rLZ-8-HSA middle-dosage group (0.5 mg·kg^−1), and an rLZ-8-HSA high-dosage group (1 mg·kg^−1), wherein dosages of the rLZ-8-HSA groups are judged from LZ-8 dosage, wherein each group comprises 10 mice.
tumor inhibition rate (%)=(average tumor weight of control groups−average tumor weight of experimental groups)/average tumor weight of control groups×100%.

In experiment [2] the test system is mouse melanoma cells B16-F10. Kind of experiment: mouse B16-F10 transplanted tumor model, in situ tumor weight. The format is in vivo. As to conditions: 2.5 mg/kg, 5 days, again after 3 weeks, 28 day cycle. On the procedure: In vivo experiment: firstly, establishing a mouse tumor mould, wherein mouse melanoma cells B16-F10 is cultured with the DMEM comprising 10% fetal calf serum at 37° C. in a CO2 incubation device; slowly subcutaneously injecting 200 μl B16-F10 cell suspension (comprising 1×10^7 cells) with a 1 ml injector at mouse dorsal-ventral skin, so as to establish a mouse transplanted tumor mould.

Experiment [3] deals with platelets. Nature of the experiment: treatment of mouse thrombocytopenia caused by cyclophosphamide, platelet count. The format is in vivo. How it is done:
Experimental medicine: preparing a 19.25 μg·kg^−1 and a 9.625 μg·kg^−1 dosage groups of the recombinant ganoderma immunoregulatory protein (rLZ-8) with sterile injection water, and 0.2 ml per mouse; and preparing a 19.25 μg·kg^−1 and a 9.625 μg·kg^−1 dosage groups (judging from the LZ-8) of the fusion protein rLZ-8-HSA of the recombinant ganoderma immunoregulatory protein.
Positive control medicine: thrombopoietin (THPO) from Shenyang 3SBio Inc., with a dosage of 770 μg·kg^−1/d and 0.2 ml per mouse.
Chemotherapy medicine: cyclophosphamide (Cy) from Jiangsu Hengrui Medicine Co., Ltd, whose batch number is 12112121, 200 mg/bottle; preparing into 100 mg·kg^−1, 0.2 ml per mouse with sterile injection water.
Platelet dilution: urea: 1.3 g; sodium citrate: 0.5 g; formaldehyde: 0.1 ml; adding distilled water to 100 ml for mixing, then filtering for further utilization.
Experimental method: dividing experimental animals into 5 groups, wherein each group comprises 10 mice with 5 males and 5 females; except for a normal control group (injected with normal saline having an equal volume), abdominally injecting the cyclophosphamide to the mice with a dosage of 100 mg·kg^−1, 0.2 ml per mouse per day, and lasting for three days; when a platelet quantity decreased to below 300×10^9/L, subcutaneously injecting the rLZ-8, the fusion protein rLZ-8-HAS (19.25 μg·kg^−1, 9.625 μg·kg^−1, 0.2 ml·per mouse per day) and the positive medicine (THPO 770 μg·kg^−1, 0.2 ml·per mouse per day) according to the above groups with corresponding dosages, and injecting the normal saline having the equal volume to the normal control group and a CP group; respectively sampling mouse tail vein blood 3 d, 7 d and 14 d after treatment, counting platelets with high power lens, wherein results thereof are listed in table 7.

Experiment [4] relates to mouse spleen cells. Nature of the experiment: promotion of mouse spleen cell proliferation, WST-1 method. The experiment is classed as cell-based. The following applies: for OD450, promotion of cell proliferation: 24 h, x ± s, n = 9; for promotion of spleen cell proliferation compared with rLZ-8: same protein concentration. How it is done:
Testing effects of the fusion proteins on mouse spleen cell proliferation by a WST-1 method, which illustrates strength of biological activity, wherein according to the present invention, BALB/c female mice are used, whose weight is controlled at 20-22 g; executing the mice by stretching necks thereof, taking out spleens under a sterile condition, and putting into a plate with 5 ml DMEM comprising 10% calf serum; cracking the spleens with tweezers, filtering tissue suspension with gauze for removing tissue blocks, and preparing cell suspension of spleen cells; adding 100 μl the tissue suspension into 900 μl 2% glacial acetic acid for counting with a microscope; adjusting a cell concentration to 5×10^6/ml with DMEM comprising 2% calf serum; respectively preparing the fusion proteins and the rLZ-8 with same molar concentration gradient, wherein there are 3 gradient concentrations, each concentration occupies 9 wells with 100 μl per well; adding tissue suspension with a concentration of 5×10^6/ml with 100 μl per well; shaking for evenly mixing, and then putting into a 37° C., 5% CO2 incubation device to incubate for 24 h; after incubation, adding WST-1 with 20 μl per well; putting into the 37° C., 5% CO2 incubation device to incubate for 3 h, then testing OD450 (with a BIO-RAD); wherein results are listed in table 1.

Experiment [5] relates to leukocytes. Nature of the experiment: treatment of rat models with leucopenia caused by cyclophosphamide, leukocyte count. The experiment is classed as in vivo. The following applies: positive medicine 13.5 μg/ml, 0.1 ml per rat. From the text:
Utilizing Wistar rats in the experiments, wherein 18 rats weighing about 100 g are utilized. […] The experiment has an rLZ-8 low-dosage group, an rLZ-8 middle-dosage group, an rLZ-8 high-dosage group, an rLZ-8-HSA low-dosage group, an rLZ-8-HSA middle-dosage group, an rLZ-8-HSA high-dosage group, and a positive medicine control group (utilizing the […]®). […] On the third day, the blood is sampled from the tail vein, and the leukocytes are counted by a cytoanalyzer. After successful modeling, the rats of each the group are respectively treated with the rLZ-8, the three kinds of the fusion proteins, or the positive medicine (the […]®) with the corresponding dosage, and the equal sterile saline is given to the rats of the normal control and a CP group. The blood is sampled from the tail vein on the first, third and seventh treatment days, and the leukocytes are counted by the cytoanalyzer. Medicine efficacy is analyzed according to a number difference of the leukocyte between before and after the treatment.

The mark [6] stands for this setting: 770 μg·kg^−1 subcutaneously per day.

Marks after values point to notes of the source that are not given here.

In experiment [1], `O=P1(N(CCCl)CCCl)NCCCO1` (stereo not drawn) [CTX, cyclophosphamide, reference compound] displayed an Inhibition rate of 64.3% and a tumor weight of 0.36 ± 0.02 g.
For the molecule `CN(C)/N=N/c1[nH]cnc1C(N)=O` [dacarbazine, reference compound], in experiment [2], the tumor inhibition rate was 62.57 ± 0.27% and the tumor weight is 0.52 ± 0.12 g.
Take “THPO: thrombopoietin (THPO) from Shenyang 3SBio Inc., positive control medicine [reference compound]”: the platelets after in experiment [3] (770 μg·kg^−1 group, after cyclophosphamide, before treatment) is 284 ± 0.19 *10^9/L. Besides, the platelets before in experiment [3] (770 μg·kg^−1 group, baseline before cyclophosphamide) was 851 ± 0.34 *10^9/L. In addition, in experiment [3] (setting [6]), the “platelets 3rd day” value was 390 ± 0.38 *10^9/L, the “platelets 7th day” value was 420 ± 0.32 *10^9/L and the “platelets 14th day” value was 689 ± 0.65 *10^9/L.
For “rLZ-8-Fc4: fusion protein of ganoderma immunoregulatory protein (LZ-8) and human IgG4Fc fragment, SEQ ID NO. 3”, the “OD450, promotion of cell proliferation” value came to 0.452 ± 0.43 in experiment [4] (protein 5.0 × 10^−9 mol/L), 0.840 ± 0.27 in experiment [4] (protein 10.0 × 10^−9 mol/L) and 0.929 ± 0.21 in experiment [4] (protein 15.0 × 10^−9 mol/L). Besides, the “promotion of spleen cell proliferation compared with rLZ-8” value in experiment [4] is “significantly decreased”.

B1: rLZ-8-Fc1: fusion protein of ganoderma immunoregulatory protein (LZ-8) and human IgG1Fc fragment, SEQ ID NO. 2 (protein)
chain: RPSDTALIFRLAWDVKKLSFDYTPNWGRGNPNNFIDTVTFPKVLTDKAYTYRVAVSGRNLGVKPSYAVESDGSGKVNFLEYNSGYGIADTNTIGVFVVDPDTNNDFIIAGWNGGGGSSEPKSCDKTHTCPPCPAPELLGGPSVFLFPPKPKDTLMISRTPEVTCVVVDVSHEDPEVKFNWYVDGVEVHNAKTKPREEGYNSTYRVVSVLTVLHGDWLNGKEYKCKVSNKALPAPIEKTISKAKGGPREPGVYTLPPSREEMTKNGVSLTCLVKGFYPSDIAVEWESNGGPENNYKTTPPVLDSDGSFFLYSKLTVDKSRWGGGNVFSCSVMHEALHNHYTGKSLSLSPGK
modifications: rLZ-8-Fc1 sequence
Regarding B1, the “OD450, promotion of cell proliferation” value in experiment [4] (protein 5.0 × 10^−9 mol/L) is 0.543 ± 0.26; in experiment [4] (protein 10.0 × 10^−9 mol/L), 0.937 ± 0.29; in experiment [4] (protein 15.0 × 10^−9 mol/L), 1.114 ± 0.31. The “promotion of spleen cell proliferation compared with rLZ-8” value in experiment [4] is listed as “significantly decreased”.

B2: GenLei ® Scimax ®: recombinant human granulocyte colony-stimulating factor injection (rhG-CSF), positive medicine (protein, UniProt P09919 31-207, looked up)
Granulocyte …: TPLGPASSLPQSFLLKCLEQVRKIQGDGAALQEKLVSECATYKLCHPEELVLLGHSLGIPWAPLSSCPSQALQLAGCLSQLHSGLFLYQGLLQALEGISPELGPTLDTLQLDVADFATTIWQQMEELGMAPALQPTQGAMPAFASAFQRRAGGVLVASHLQSFLEVSYRVLRHLAQP
Take B2: in experiment [5], the “leukocyte number on the first treatment day” value turned out to be 6.4e+09 L⁻¹, the “leukocyte number on the seventh treatment day” value is 1.117e+10 L⁻¹ and the “leukocyte number on the third treatment day” value turned out to be 1.183e+10 L⁻¹. For the same molecule, the leukocyte number before in experiment [5] (baseline after CP modeling, before treatment) stood at 4.55e+09 L⁻¹.
